Laboratory results taken from patent publication US10674727B2, “Substituted oxadiazoles for combating phytopathogenic fungi” (priority 2015, dated 2020).

Tested on: Phakopsora pachyrhizi
Test: Protective control of soy bean rust on soy beans (glass house trial)
Assay type: in vivo
Conditions: 16 ppm active compound, sprayed 2 days before inoculation, soy bean seedlings; untreated plants 90%
Description: The spray solutions were prepared in several steps: The stock solution were prepared: a mixture of acetone and/or dimethylsulfoxide and the wetting agent/emulsifier Wettol, which is based on ethoxylated alkylphenoles, in a relation (volume) solvent-emulsifier of 99 to 1 was added to 25 mg of the compound to give a total of 5 ml. Water was then added to total volume of 100 ml. This stock solution was diluted with the described solvent-emulsifier-water mixture to the given concentration.
II.2) Protective control of soy bean rust on soy beans caused by Phakopsora pachyrhizi Leaves of pot-grown soy bean seedlings were sprayed to run-off with an aqueous suspension, containing the concentration of active ingredient or their mixture as described below. The plants were allowed to air-dry. The trial plants were cultivated for 2 day in a greenhouse chamber at 23 to 27° C. and a relative humidity between 60 and 80%. Then the plants were inoculated with spores of Phakopsora pachyrhizi. To ensure the success the artificial inoculation, the plants were transferred to a humid chamber with a relative humidity of about 95% and 20 to 24° C. for 24 h. The trial plants were cultivated for fourteen days in a greenhouse chamber at 23 to 27° C. and a relative humidity between 60 and 80%. The extent of fungal attack on the leaves was visually assessed as % diseased leaf area.

Compound | diseased leaf area [%]
CCN(Cc1ccc(-c2noc(C(F)(F)F)n2)cc1)C(=O)C(C)C [Ex-24] | 0
CCCC(=O)N(CC)Cc1ccc(-c2noc(C(F)(F)F)n2)cc1 [Ex-25] | 0
CCC(=O)N(CC)Cc1ccc(-c2noc(C(F)(F)F)n2)cc1 [Ex-26] | 0
CCN(Cc1ccc(-c2noc(C(F)(F)F)n2)cc1)C(=O)C(C)(C)C [Ex-27] | 0

Same assay, conditions: 32 ppm active compound, sprayed 2 days before inoculation, soy bean seedlings; untreated plants 90%

Compound | diseased leaf area [%]
CNC(c1ccc(-c2noc(C(F)(F)F)n2)cc1)C(F)(F)F (stereo not shown) [Ex-1] | 0
C=CCN(Cc1ccc(-c2noc(C(F)(F)F)n2)cc1)C(C)=O [Ex-4] | 0
C=CCN(Cc1ccc(-c2noc(C(F)(F)F)n2)cc1)C(=O)CC [Ex-5] | 0
C=CCN(Cc1ccc(-c2noc(C(F)(F)F)n2)cc1)C(=O)C(C)(C)C [Ex-6] | 0
CCC(=O)N(C)Cc1ccc(-c2noc(C(F)(F)F)n2)cc1 [Ex-7] | 0
CN(Cc1ccc(-c2noc(C(F)(F)F)n2)cc1)C(=O)C(C)(C)C [Ex-8] | 0
CCC(=O)N(Cc1ccc(-c2noc(C(F)(F)F)n2)cc1)C(C)C [Ex-9] | 0
CC(C)N(Cc1ccc(-c2noc(C(F)(F)F)n2)cc1)C(=O)C(C)(C)C [Ex-10] | 0
CCC(CC)C(=O)N(C)Cc1ccc(-c2noc(C(F)(F)F)n2)cc1 [Ex-11] | 0
CCCC(=O)N(C)Cc1ccc(-c2noc(C(F)(F)F)n2)cc1 [Ex-12] | 0
CC(C)C(=O)N(C)Cc1ccc(-c2noc(C(F)(F)F)n2)cc1 [Ex-13, N,2-dimethyl-N[[4-[5-(trifluoromethyl)-1,2,4-oxadiazol-3-yl]phenyl]methyl]propanamide] | 0
CCC(C)C(=O)N(C)Cc1ccc(-c2noc(C(F)(F)F)n2)cc1 (stereo not shown) [Ex-14] | 0
CC(=O)NCc1ccc(-c2noc(C(F)(F)F)n2)cc1 [Ex-15] | 0
CC(=O)N(C)C(C)c1ccc(-c2noc(C(F)(F)F)n2)cc1 (stereo not shown) [Ex-16, N-methyl-N-[1-[4-[5-(trifluoromethyl)-1,2,4-oxadiazol-3-yl]phenyl]ethyl]acetamide] | 0
CC(c1ccc(-c2noc(C(F)(F)F)n2)cc1)N(C)C(=O)C(C)(C)C (stereo not shown) [Ex-17] | 0
CCC(=O)N(C)C(C)c1ccc(-c2noc(C(F)(F)F)n2)cc1 (stereo not shown) [Ex-18] | 0
CCCC(=O)N(C)C(C)c1ccc(-c2noc(C(F)(F)F)n2)cc1 (stereo not shown) [Ex-19] | 0
CCC(CC)C(=O)N(C)C(C)c1ccc(-c2noc(C(F)(F)F)n2)cc1 (stereo not shown) [Ex-20] | 0
CC(C)C(=O)N(C)C(C)c1ccc(-c2noc(C(F)(F)F)n2)cc1 (stereo not shown) [Ex-21] | 0
CCC(C)C(=O)N(C)C(C)c1ccc(-c2noc(C(F)(F)F)n2)cc1 (stereo not shown) [Ex-22] | 0
CC(=O)NC(c1ccc(-c2noc(C(F)(F)F)n2)cc1)C(F)(F)F (stereo not shown) [Ex-23] | 0
CCC(C)C(=O)N(CC)Cc1ccc(-c2noc(C(F)(F)F)n2)cc1 (stereo not shown) [Ex-28] | 0
CC(C)CC1CCN(Cc2ccc(-c3noc(C(F)(F)F)n3)cc2)C1=O (stereo not shown) [Ex-29] | 0
O=C1CCCN1Cc1ccc(-c2noc(C(F)(F)F)n2)cc1 [Ex-30, 1-[[4-[5-(trifluoromethyl)-1,2,4-oxadiazol-3-yl]phenyl]methyl] pyrrolidin-2-one] | 0
CC1(C)CC(=O)N(Cc2ccc(-c3noc(C(F)(F)F)n3)cc2)C1 [Ex-31] | 0
CC1CCN(Cc2ccc(-c3noc(C(F)(F)F)n3)cc2)C1=O (stereo not shown) [Ex-32] | 0
CC1(C)CCC(=O)N(Cc2ccc(-c3noc(C(F)(F)F)n3)cc2)C1 [Ex-33] | 0
